Results reported in PubChem BioAssay (NCI).
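Here, GI50 denotes the concentration required for 50% inhibition of growth. TGI: concentration producing complete growth inhibition.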

Experiments:
Test in all cases: NCI-60 cell line screen, 384-well format
MDA-MB-468 breast = tested on: MDA-MB-468 breast
786-0 renal = tested on: 786-0 renal
UO-31 renal = tested on: UO-31 renal
MDA-MB-435 melanoma = tested on: MDA-MB-435 melanoma
SN12C renal = tested on: SN12C renal
HL-60(TB) leukemia = tested on: HL-60(TB) leukemia
UACC-257 melanoma = tested on: UACC-257 melanoma
BT-549 breast = tested on: BT-549 breast
CAKI-1 renal = tested on: CAKI-1 renal
SNB-19 CNS = tested on: SNB-19 CNS
KM12 colon = tested on: KM12 colon
OVCAR-4 ovarian = tested on: OVCAR-4 ovarian
TK-10 renal = tested on: TK-10 renal
HOP-62 NSCLC = tested on: HOP-62 NSCLC
UACC-62 melanoma = tested on: UACC-62 melanoma
LOX IMVI melanoma = tested on: LOX IMVI melanoma
ACHN renal = tested on: ACHN renal
OVCAR-8 ovarian = tested on: OVCAR-8 ovarian
SK-MEL-5 melanoma = tested on: SK-MEL-5 melanoma
U251 glioblastoma = tested on: U251 glioblastoma
NCI-H23 lung = tested on: NCI-H23 lung
EKVX NSCLC = tested on: EKVX NSCLC
SF-295 CNS = tested on: SF-295 CNS
MALME-3M melanoma = tested on: MALME-3M melanoma
SW-620 colon = tested on: SW-620 colon
SF-268 CNS = tested on: SF-268 CNS
SK-OV-3 ovarian = tested on: SK-OV-3 ovarian
HCC-2998 colon = tested on: HCC-2998 colon
CCRF-CEM leukemia = tested on: CCRF-CEM leukemia
DU-145 prostate = tested on: DU-145 prostate
IGROV1 ovarian = tested on: IGROV1 ovarian
SK-MEL-28 melanoma = tested on: SK-MEL-28 melanoma
SNB-75 CNS = tested on: SNB-75 CNS
HCT-15 colon = tested on: HCT-15 colon
NCI/ADR-RES ovarian = tested on: NCI/ADR-RES ovarian
T-47D breast = tested on: T-47D breast
NCI-H226 lung = tested on: NCI-H226 lung
A498 renal = tested on: A498 renal
RXF 393 renal = tested on: RXF 393 renal
NCI-H322M lung = tested on: NCI-H322M lung
A549 NSCLC = tested on: A549 NSCLC
HT29 colon = tested on: HT29 colon
K-562 leukemia = tested on: K-562 leukemia
MCF7 breast = tested on: MCF7 breast
NCI-H522 lung = tested on: NCI-H522 lung
PC-3 prostate = tested on: PC-3 prostate
OVCAR-5 ovarian = tested on: OVCAR-5 ovarian
SF-539 CNS = tested on: SF-539 CNS
HS 578T breast = tested on: HS 578T breast
NCI-H460 NSCLC = tested on: NCI-H460 NSCLC
OVCAR-3 ovarian = tested on: OVCAR-3 ovarian
COLO 205 colon = tested on: COLO 205 colon
M14 melanoma = tested on: M14 melanoma
RPMI-8226 leukemia = tested on: RPMI-8226 leukemia

SMILES: CCS(=O)(=O)c1cccc(-c2cc(C(=O)NC3CCN(C)CC3)c(C)c3[nH]c4ncc(C)cc4c23)c1
- GI50 (MDA-MB-468 breast): 17.9 nM
- TGI (MDA-MB-468 breast): 88.6 nM
- GI50 ([…]-0 renal): 1000 nM
- TGI (786-0 renal): 2460 nM
- GI50 (UO-31 renal): 5480 nM
- TGI (UO-31 renal): 19100 nM
- GI50 (MDA-MB-435 melanoma): 366 nM
- TGI (MDA-MB-435 melanoma): 1900 nM
- GI50 (SN12C renal): 51.5 nM
- TGI (SN12C renal): 267 nM
- GI50 (HL-60(TB) leukemia): 31.8 nM
- TGI (HL-60(TB) leukemia): 126 nM
- GI50 (UACC-257 melanoma): 139 nM
- TGI (UACC-257 melanoma): 935 nM
- GI50 (BT-549 breast): 144 nM
- TGI (BT-549 breast): 326 nM
- GI50 (CAKI-1 renal): 328 nM
- TGI (CAKI-1 renal): 5340 nM
- GI50 (SNB-19 CNS): 192 nM
- TGI (SNB-19 CNS): 1390 nM
- GI50 (KM12 colon): 24.2 nM
- TGI (KM12 colon): 1110 nM
- GI50 (OVCAR-4 ovarian): 953 nM
- TGI (OVCAR-4 ovarian): 5040 nM
- GI50 (TK-10 renal): 1740 nM
- TGI (TK-10 renal): 5520 nM
- GI50 (HOP-62 NSCLC): 161 nM
- TGI (HOP-62 NSCLC): 1290 nM
- GI50 (UACC-62 melanoma): 158 nM
- TGI (UACC-62 melanoma): 1120 nM
- GI50 (LOX IMVI melanoma): 84.9 nM
- TGI (LOX IMVI melanoma): 229 nM
- GI50 (ACHN renal): 2370 nM
- TGI (ACHN renal): 13200 nM
- GI50 (OVCAR-8 ovarian): 309 nM
- TGI (OVCAR-8 ovarian): 1490 nM
- GI50 (SK-MEL-5 melanoma): 264 nM
- TGI (SK-MEL-5 melanoma): 1680 nM
- GI50 (U251 glioblastoma): 202 nM
- TGI (U251 glioblastoma): 902 nM
- GI50 (NCI-H23 lung): 66.9 nM
- TGI (NCI-H23 lung): 343 nM
- GI50 (EKVX NSCLC): 270 nM
- TGI (EKVX NSCLC): 1930 nM
- GI50 (SF-295 CNS): 399 nM
- TGI (SF-295 CNS): 3610 nM
- GI50 (MALME-3M melanoma): 240 nM
- TGI (MALME-3M melanoma): 1460 nM
- GI50 (SW-620 colon): 181 nM
- TGI (SW-620 colon): 1250 nM
- GI50 (SF-268 CNS): 17.8 nM
- TGI (SF-268 CNS): 91.1 nM
- GI50 (SK-OV-3 ovarian): 135 nM
- TGI (SK-OV-3 ovarian): 869 nM
- GI50 (HCC-2998 colon): 168 nM
- TGI (HCC-2998 colon): 1240 nM
- TGI (CCRF-CEM leukemia): 12.1 nM
- GI50 (DU-145 prostate): 343 nM
- TGI (DU-145 prostate): 4340 nM
- GI50 (IGROV1 ovarian): 40.8 nM
- TGI (IGROV1 ovarian): 230 nM
- GI50 (SK-MEL-28 melanoma): 279 nM
- TGI (SK-MEL-28 melanoma): 1300 nM
- GI50 (SNB-75 CNS): 101 nM
- TGI (SNB-75 CNS): 226 nM
- GI50 (HCT-15 colon): 3960 nM
- TGI (HCT-15 colon): 19800 nM
- GI50 (NCI/ADR-RES ovarian): > 100000 nM
- TGI (NCI/ADR-RES ovarian): > 100000 nM
- GI50 (T-47D breast): 59.2 nM
- TGI (T-47D breast): 270 nM
- GI50 (NCI-H226 lung): 39.2 nM
- TGI (NCI-H226 lung): 441 nM
- GI50 (A498 renal): 1400 nM
- TGI (A498 renal): 5500 nM
- GI50 (RXF 393 renal): 112 nM
- TGI (RXF 393 renal): 384 nM
- GI50 (NCI-H322M lung): 541 nM
- TGI (NCI-H322M lung): 2440 nM
- GI50 (A549 NSCLC): 58 nM
- TGI (A549 NSCLC): 1200 nM
- GI50 (HT29 colon): 215 nM
- TGI (HT29 colon): 10500 nM
- GI50 (K-562 leukemia): 32.2 nM
- TGI (K-562 leukemia): 761 nM
- GI50 (MCF7 breast): 12.6 nM
- TGI (MCF7 breast): 2130 nM
- GI50 (NCI-H522 lung): 19.4 nM
- TGI (NCI-H522 lung): 126 nM
- GI50 (PC-3 prostate): 219 nM
- TGI (PC-3 prostate): 2710 nM
- GI50 (OVCAR-5 ovarian): 185 nM
- TGI (OVCAR-5 ovarian): 827 nM
- GI50 (SF-539 CNS): 59 nM
- TGI (SF-539 CNS): 233 nM
- GI50 (HS 578T breast): 58.1 nM
- TGI (HS 578T breast): 216 nM
- GI50 (NCI-H460 NSCLC): 36.2 nM
- TGI (NCI-H460 NSCLC): 1080 nM
- GI50 (OVCAR-3 ovarian): 103 nM
- TGI (OVCAR-3 ovarian): 298 nM
- GI50 (COLO 205 colon): 18.3 nM
- TGI (COLO 205 colon): 98.1 nM
- GI50 (M14 melanoma): 437 nM
- TGI (M14 melanoma): 2040 nM
- GI50 (RPMI-8226 leukemia): 49.7 nM
- TGI (RPMI-8226 leukemia): 226 nM
